Laboratory results published in ChEMBL document CHEMBL1201862, “PubChem BioAssay data set” (2004).
Calls of active or inactive are those of the source.

Tests used:
[1] = target: Beta-2 adrenergic receptor (Homo sapiens, UniProt P07550); assay: beta2AR agonists driving receptor internalization, dose response, cell-based, FAP fluorogen, flow cytometry, cherry pick 1 (AID 588763); type: functional
[2] = target: T1, High affinity choline transporter 1 (Homo sapiens, UniProt Q9GZV3); assay: CHT inhibitors, dose response, cell-based, 5-point CRC, membrane potential dye (AID 504840); type: functional
T1 sequence (Q9GZV3 whole entry): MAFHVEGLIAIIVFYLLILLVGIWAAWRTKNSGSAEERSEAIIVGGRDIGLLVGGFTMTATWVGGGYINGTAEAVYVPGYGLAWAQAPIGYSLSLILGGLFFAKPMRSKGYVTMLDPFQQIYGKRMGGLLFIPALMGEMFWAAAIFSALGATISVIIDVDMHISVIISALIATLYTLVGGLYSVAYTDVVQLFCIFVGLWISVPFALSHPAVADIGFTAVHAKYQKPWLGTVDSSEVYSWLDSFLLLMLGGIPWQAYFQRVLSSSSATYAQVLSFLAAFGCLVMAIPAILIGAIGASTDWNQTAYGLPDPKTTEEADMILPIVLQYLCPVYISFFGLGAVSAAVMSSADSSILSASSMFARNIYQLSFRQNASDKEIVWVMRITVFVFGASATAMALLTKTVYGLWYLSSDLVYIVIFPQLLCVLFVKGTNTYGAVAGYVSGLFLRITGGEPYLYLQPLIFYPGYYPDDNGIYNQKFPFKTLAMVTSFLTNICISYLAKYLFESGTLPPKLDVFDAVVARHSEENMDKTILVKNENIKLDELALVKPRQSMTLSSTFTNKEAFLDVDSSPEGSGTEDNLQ

Vero = Vero cell cytotoxicity, cytotoxicity control for flavivirus capping enzyme inhibitors (AID 588742); type: functional; conditions: Chlorocebus sabaeus
Genome polyprotein = Genome polyprotein (dengue virus type 2, UniProt P29990); assay: Dengue-2 NS5 methyltransferase inhibitors, primary screen, biochemical, confirmation dose response (AID 588689); type: functional
Genome polyprotein, sequence (P29990 2492-3391 limits assumed): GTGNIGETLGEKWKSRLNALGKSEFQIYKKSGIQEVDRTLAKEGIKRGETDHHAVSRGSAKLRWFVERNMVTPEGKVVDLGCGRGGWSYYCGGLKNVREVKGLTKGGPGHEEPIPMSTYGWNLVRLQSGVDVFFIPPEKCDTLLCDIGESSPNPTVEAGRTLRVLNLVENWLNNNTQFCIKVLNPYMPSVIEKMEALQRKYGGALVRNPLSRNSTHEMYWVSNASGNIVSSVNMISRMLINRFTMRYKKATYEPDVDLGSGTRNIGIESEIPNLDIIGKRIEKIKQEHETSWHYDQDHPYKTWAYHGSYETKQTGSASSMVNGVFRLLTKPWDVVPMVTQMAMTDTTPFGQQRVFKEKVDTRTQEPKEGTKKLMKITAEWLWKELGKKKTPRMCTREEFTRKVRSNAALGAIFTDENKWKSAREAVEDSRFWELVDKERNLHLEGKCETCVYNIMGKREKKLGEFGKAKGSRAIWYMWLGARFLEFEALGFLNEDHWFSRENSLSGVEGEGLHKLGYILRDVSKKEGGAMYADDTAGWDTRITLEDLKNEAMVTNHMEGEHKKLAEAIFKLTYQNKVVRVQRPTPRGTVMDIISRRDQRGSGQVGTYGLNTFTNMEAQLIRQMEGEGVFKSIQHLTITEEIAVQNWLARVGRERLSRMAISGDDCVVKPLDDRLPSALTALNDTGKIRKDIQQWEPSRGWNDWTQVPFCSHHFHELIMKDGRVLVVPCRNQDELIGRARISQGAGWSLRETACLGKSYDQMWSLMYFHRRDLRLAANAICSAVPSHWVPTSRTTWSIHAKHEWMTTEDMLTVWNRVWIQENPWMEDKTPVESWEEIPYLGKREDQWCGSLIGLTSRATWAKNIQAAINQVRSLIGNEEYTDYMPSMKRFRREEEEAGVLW

[3] = target: T2, Corticotropin-releasing factor receptor 2/Corticotropin-releasing factor-binding protein (Homo sapiens, UniProt P24387+Q13324); assay: activators of CRF receptor 2 with binding protein – uHTS hits, confirmation (AID 602473); type: functional; conditions: read-out: EC50_Mean
T2 sequence (Q13324 whole entry): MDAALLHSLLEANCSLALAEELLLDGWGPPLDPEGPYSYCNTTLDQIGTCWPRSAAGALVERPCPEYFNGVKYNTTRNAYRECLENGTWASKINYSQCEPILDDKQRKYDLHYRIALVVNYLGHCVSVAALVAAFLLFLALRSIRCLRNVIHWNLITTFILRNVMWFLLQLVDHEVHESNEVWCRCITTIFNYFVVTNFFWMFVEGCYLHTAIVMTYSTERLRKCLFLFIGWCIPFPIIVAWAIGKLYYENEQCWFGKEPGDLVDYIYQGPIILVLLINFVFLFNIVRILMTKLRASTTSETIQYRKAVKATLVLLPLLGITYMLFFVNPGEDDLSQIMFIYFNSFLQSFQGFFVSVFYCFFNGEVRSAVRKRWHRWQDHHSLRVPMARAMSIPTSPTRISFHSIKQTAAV
T2 sequence (P24387 whole entry): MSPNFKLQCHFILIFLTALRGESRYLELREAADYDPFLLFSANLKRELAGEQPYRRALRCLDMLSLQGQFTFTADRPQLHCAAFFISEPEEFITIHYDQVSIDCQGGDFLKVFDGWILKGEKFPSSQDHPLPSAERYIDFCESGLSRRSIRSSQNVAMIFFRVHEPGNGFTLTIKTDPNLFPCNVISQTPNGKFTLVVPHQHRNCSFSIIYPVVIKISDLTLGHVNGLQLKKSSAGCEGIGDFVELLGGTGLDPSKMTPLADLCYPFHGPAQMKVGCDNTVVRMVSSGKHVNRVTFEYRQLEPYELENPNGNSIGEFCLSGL

[4] = target: T3, Carboxy-terminal domain RNA polymerase II polypeptide A small phosphatase 1 (Homo sapiens, UniProt Q9GZU7); assay: inhibitors of CTDSP1, concentration-response testing, biochemical assay, absorbance-based, actives from ultra-high-throughput screening (AID 540297); type: functional
T3 sequence (Q9GZU7 whole entry): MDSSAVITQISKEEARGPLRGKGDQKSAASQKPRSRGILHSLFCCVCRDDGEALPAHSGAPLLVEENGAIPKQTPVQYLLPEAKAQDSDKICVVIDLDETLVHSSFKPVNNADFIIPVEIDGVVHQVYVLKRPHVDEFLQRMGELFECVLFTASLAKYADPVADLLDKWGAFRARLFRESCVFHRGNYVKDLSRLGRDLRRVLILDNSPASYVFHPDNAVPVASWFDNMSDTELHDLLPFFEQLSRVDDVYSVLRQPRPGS

Cytochrome P450 1A2 = target: T4, Cytochrome P450 1A2 (Homo sapiens, UniProt P05177);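 note: PubChem cytochrome P450 panel assay, CYP1A2 panel member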
T4 sequence (P05177 whole entry): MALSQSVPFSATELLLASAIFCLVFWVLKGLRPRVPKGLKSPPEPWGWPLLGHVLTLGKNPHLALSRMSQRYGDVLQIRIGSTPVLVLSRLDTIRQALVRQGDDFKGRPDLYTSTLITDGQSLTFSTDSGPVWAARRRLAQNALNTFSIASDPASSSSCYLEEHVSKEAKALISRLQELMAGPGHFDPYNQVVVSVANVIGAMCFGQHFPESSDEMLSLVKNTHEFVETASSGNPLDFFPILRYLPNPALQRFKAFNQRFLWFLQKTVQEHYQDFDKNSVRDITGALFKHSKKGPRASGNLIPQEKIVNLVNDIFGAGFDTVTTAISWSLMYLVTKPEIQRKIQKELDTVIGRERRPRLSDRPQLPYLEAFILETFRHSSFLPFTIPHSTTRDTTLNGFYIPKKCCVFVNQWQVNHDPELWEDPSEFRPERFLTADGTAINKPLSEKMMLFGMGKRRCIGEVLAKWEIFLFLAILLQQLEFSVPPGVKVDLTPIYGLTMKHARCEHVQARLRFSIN

[5] = test system: Streptococcus sp. 'group A'; assay: growth inhibition of control SK(-) GAS strain, dose response, counter-screen for streptokinase expression inhibitor project, luminescence, kanamycin, BacTiterGlo, confirmation (AID 1900); type: functional, organism-based
Streptococcus = assay: Group A Streptococcus viability loss, dose response, counter-screen for streptokinase expression inhibitor project, luminescence, BacTiterGlo (AID 1915); type: functional, organism-based;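 note: potency for reduction of bacterial viability or growth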

Beta-2 adrenergic receptor, sequence (P07550 whole entry): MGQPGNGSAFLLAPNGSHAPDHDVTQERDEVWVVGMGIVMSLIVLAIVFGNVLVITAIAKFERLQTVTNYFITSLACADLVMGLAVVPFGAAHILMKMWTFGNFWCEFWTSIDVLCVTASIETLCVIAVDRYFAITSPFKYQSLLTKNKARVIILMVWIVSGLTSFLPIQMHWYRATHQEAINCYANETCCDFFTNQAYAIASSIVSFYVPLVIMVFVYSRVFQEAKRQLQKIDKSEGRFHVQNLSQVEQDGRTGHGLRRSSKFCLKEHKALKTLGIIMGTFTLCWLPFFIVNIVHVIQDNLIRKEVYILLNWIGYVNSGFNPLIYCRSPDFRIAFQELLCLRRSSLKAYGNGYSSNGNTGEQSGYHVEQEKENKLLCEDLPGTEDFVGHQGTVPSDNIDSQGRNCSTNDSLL

Structure (SMILES) | EC50 [1] | CC50 (Vero) | IC50 (Genome polyprotein) | other results
O=C(c1ccc(OC2CCN(Cc3ccc(C(F)(F)F)cc3)CC2)cc1)N1CCCCC1 | 2.59 µM (active) | – | – | –
O=C(Nc1cc(S(=O)(=O)N2CCCCC2)ccc1O)c1ccccc1NS(=O)(=O)c1ccc(F)cc1 | – | > 40 µM (active) | 67.9 µM (active) | IC50 [2]: 13.2 µM (active); EC50 [3]: 1.83 µM (active)
O=C(Nc1cccc(-c2nc3ncccc3o2)c1)c1sc2cc(Cl)ccc2c1Cl | 7.22 µM (inactive) | – | – | IC50 [4]: 7.21 µM (active); AC50 (Cytochrome P450 1A2): 25.1 µM (inconclusive)
O=C(O)CN1C(=O)/C(=C\c2cc(Br)ccc2OCc2ccc(Cl)cc2Cl)SC1=S | – | > 40 µM (active) | 28.8 µM (active) | EC50 [5]: 1.36 µM (active); EC50 (Streptococcus): 1.95 µM (active)
CC(C)=CCC(C)(C)C1OCCN1C(=O)c1ccccc1 (stereo not drawn) | 3.3 µM (active) | – | – | –
